Patent publication US20020177120A1, “ASSAYS FOR APOTOSIS MODULATORS” (priority 1999, published 2002)

How the values were obtained:
Type in all cases: cell-based, human
caspase-3 [1] = assay: Caspase-3 assay in SAT-reporter-transformed HEK293 cells after apoptosis inducers; conditions: confluent HEK293, 1-5 μM staurosporin for 8 hrs.
HEK293 cells = assay: Annexin V apoptotic membrane assay in SAT-reporter-transformed HEK293 cells; conditions: staurosporin, 4 hrs.
Source text: A test system was constructed to evaluate SAT reporter expression and feasibility of detecting FRET signal changes in mammalian cells in microtiter assays. The human embryonic kidney-derived HEK293 cell line was chosen as a host because of its relatively high transfection efficiency, rapid growth, easy maintenance and suitability for microplate assay formats. In preliminary experiments in which HEK293 cells were transfected with pcDNA3-Emerald, transformed cells were fluorescent and there was no loss of fluorescence, or obvious detrimental effects on cell morphology or growth, in a selected pool of cells (i.e., mixed populations of cells) over the course of one month. […] Optimal conditions for transfection of HEK 293 cells with SAT-reporter plasmid were determined. Cells transfected using LIPOFECTAMINE (Life Technologies) and selected in G418 (Life Technologies) expressed full-length SAT reporter protein as determined by western analysis of transformed HEK293 cells after two weeks of in vitro selection. […] Under these conditions of treatment with staurosporin only about half of the SAT-reporter-transformed HEK293 cells in the population were apoptotic at 4 hrs. as determined using the Annexin V assay (Materials and Methods). […]

F1-1-42 cells = assay: Staurosporin-induced apoptosis in F1-1-42 SAT FRET reporter cells (FRET signal, western blot, caspase-3, morphology)
Method: Detecting Intracellular Changes in a FRET Reporter in Cells Undergoing Apoptosis: Having established that SAT reporter protein synthesized in HEK293 cells could be cleaved ex vivo, i.e., in cell lysates by trypsin (above), an initial in vivo intracellular assay was conducted using the selected F1-1-42 clonal cell line and staurosporin to induce apoptosis. […] In these experiments the F1-1-42 cells were plated at a density of 4×10^5 cells/0.5 ml in each well of a 24-well microtiter plate. After overnight incubation, apoptosis was induced by adding staurosporin to a final concentration of 5 μM, and using vehicle (0.25% DMSO) as a negative control. Assays for caspase-3 were used to confirm that apoptosis was induced. […] Subsequent testing determined that significant changes in FRET signal were first detectable at about 8 hours after addition of staurosporin and were maximal by 24 hrs post-induction.

caspase-3 [2] = assay: Inducibility and kinetics of apoptosis in U-138 cells (caspase-3 activity, inter-nucleosomal DNA fragmentation)
Method: DNA Fragmentation ELISA: Apoptosis-induced inter-nucleosomal fragmentation of chromosomal DNA was quantified using the “Cell Death Detection ELISA^PLUS” (Boehringer Mannheim) according to the manufacturer's instructions. Briefly, ˜10^4 cells/well were plated on a poly-D-lysine-coated 96-well plate and treated for various periods of times with different apoptosis-inducing agents. The cells were lysed and the nuclei and membranes were pelleted. An aliquot of the cytoplasm-containing supernatant was then transferred to a streptavidin-coated microtiter plate and incubated with anti-histone-biotin and anti-DNA-peroxidase, resulting in the formation of “sandwich” antibody complexes, i.e., (anti-DNA-peroxidase)-(nucleosomal-DNA-containing-histone) -(anti-histone-biotin)-(streptavidin-microtiter plate). Unbound antibody was removed by washing. Peroxidase substrate (i.e., ABTS) was added and nucleosomal DNA complexes quantified by spectrophotometric analysis of the colored peroxidase reaction product.
Caspase-3 Assay: Caspase-3 activity was assayed according to the following protocol. Cells plated and treated as above were washed in 1×PBS and lysed in 1×assay buffer (1 mM DTT, 1% Triton X-100, 0.5% Tween-20 in 1×PBS, pH 7.2). […] Fluorescence readings were taken on the Cytofluor II plate reader (excitation 360 nm, emission 460 nm, 6 reads/well, gain 50).

U-138 cells = assay: FRET signal in SAT-transfected U-138 cells; conditions: pcDNA3VH-SAT transfected U-138 parental cultures
Source text: Stable expression of the SAT reporter in U-138 cells was investigated by transfecting cultures with pcDNA3VH-SAT using calcium phosphate (Materials and Methods), and then selecting in medium containing G418 ([…]). […] The parental culture showing the strongest fluorescence and best growth characteristics was subcloned. Unexpectedly, the ability of the subclones to produce a staurosporin-inducible change in FRET signal was not stable, i.e., disappearing at passages 9, 11 and 13, but then reappearing at passage 16. While it was speculated that this phenomena may have resulted from some difference in expression and/or regulation of apoptosis or FRET reporter in sub-cultures of cells, these properties were not considered desirable and these SAT-transfected U-138 cell lines were discontinued in hopes that an improved reporter construct might solve the problem of irreproducibility.

CN[C@@H]1C[C@H]2O[C@@](C)([C@@H]1OC)n1c3ccccc3c3c4c(c5c6ccccc6n2c5c31)C(=O)NC4 [staurosporin]
increase in caspase-3 activity over background (caspase-3 [1]): 6- to 10 fold
cells in the population apoptotic (Annexin V assay) (HEK293 cells): about half
SAT reporter cleavage by western analysis after induction (F1-1-42 cells; 5 μM staurosporin): cleavage of the SAT reporter
caspase-3 activity after induction (F1-1-42 cells; 5 μM staurosporin): caspase-3 activation
FRET signal change after induction (F1-1-42 cells; 5 μM staurosporin, 24-well plate, 4×10^5 cells/0.5 ml): concomitant decrease in FRET signal
time at which significant changes in FRET signal were first detectable (F1-1-42 cells; after addition of staurosporin): about 8 hours
time at which FRET signal changes were maximal (F1-1-42 cells; post-induction with staurosporin): ≤ 24 h
time at which caspase-3 activity and inter-nucleosomal DNA fragmentation were maximally altered (caspase-3 [2]; 5 μM staurosporin, minimal at 4 hrs., intermediate by 8 hrs.): 16 to 24 h
inducibility of caspase-3 activity (caspase-3 [2]; 30-300 μM etoposide or 1.5-15.0 μM staurosporin, 8 hrs.): inducible with staurosporin
FRET signal change, correlated with FRET reporter cleavage in western blot (U-138 cells): induced changes in FRET signal
